Measured values reported in US20230043813A1, “METHODS FOR TARGETED CELL DEPLETION” (The Regents of the University of California, priority 2019, published 2023).

How the values were obtained:
[1] = tested on: HEK293T and HAP1 cells; experiment: mammalian competitive proliferation assay, cells expressing Cas9 WT; assay type: cell-based, human; conditions: WT Cas9, eight-day assay period
Source text: (§1) For assessment of CRISPR-Cas programmed cell depletion using guide RNAs targeting an essential gene (RPA1) or sgCIDEs targeting hundreds of thousands of loci within the genome, cells were stably transduced with a lentiviral vector expressing Cas9-wt (pCF226) or ProCas9Flavi (pCF730) and selected on puromycin. Subsequently, these cell lines were further stably transduced with vectors expressing various mCherry-tagged sgRNAs and analyzed as follows: 1) After mixing sgRNA expressing populations with parental cells, the fraction of mCherry-positive cells was quantified over time. Different sgRNAs targeting a neutral gene (sgOR2B6), an essential gene (sgRPA1), >100,000 genomic loci (sgCIDE) and a non-targeting control (sgNT) were compared. 2) Alternatively, the cell lines were partially transduced with lentiviral vectors expressing a GFP-tagged dTEV (pCF736) or WNV (pCF738) protease, and cell depletion quantified by flow cytometry. Depletion of protease-expressing (GFP+) cells was quantified among the sgRNA-positive (mCherry+) population.
The effect of guide RNA expression on cell viability was assessed using a competitive proliferation assay in which cells expressing a specific sgRNA were mixed with parental cells expressing only Cas9 WT, and the mCherry-positive population was followed over time. […] Guide RNAs targeting the essential RPA1 gene depleted over the eight-day assay period.

[2] = tested on: Cas9 expressing U-251 and LN-229; experiment: comet assay (genomic fragmentation); assay type: cell-based, human; conditions: 24 hours post-transduction, compared to sgNT-1/2/3
Source text: To look at the genomic effects of repetitive loci targeting, DNA from lysed targeted cells was separated on agarose-coated slides.

[3] = tested on: U-251, LN-229, T98G and LN-18 glioblastoma cells; experiment: luminescence-based quantification of cell viability; parameters: species or system human; conditions: over five days
Experimental: To investigate the speed of cell elimination by either method, Cas9 expressing TMZ-sensitive U-251 and LN-229, and TMZ-resistant T98G and LN-18, glioblastoma cells were treated with TMZ or these cells were transduced with lentiviral vectors expressing sgCIDEs.

[4] = tested on: Cas9 expressing U-251, LN-229, T98G, and LN-18 glioblastoma cells; experiment: cell cycle analysis (PI staining, flow cytometry); assay type: cell-based, human; conditions: one to five days; TMZ 50 μM or 100 μM
Experimental: The effects of genome shredding on cell cycle progression were then assessed. Cells were treated with TMZ or sgCIDEs for one to five days and then stained with PI after fixation for analysis by flow cytometry. […] Increases of the Sub-G1 population was more prominent in TP53-mutant U-251 cells compared LN-229 with wild-type TP53, consistent with previous observations that TP53 status affects resolution of the G2/M arrest.

[5] = tested on: Cas9 expressing U-251, LN-229, T98G, and LN-18 cells; experiment: colony formation assay (crystal violet); assay type: cell-based, human; conditions: all four tested GBM cell lines, two weeks
Experimental: Because recurrent tumors develop from cells that escape treatment, either by avoiding exposure, tolerating the effects, or developing resistance, colony formation assays were performed to evaluate the robustness of CRISPR-Cas genome shredding in eliminating target cells.
TMZ-resistant LN-229 cell lines were isolated to determine which types of treatments could overcome such resistance. Cas9 expressing U-251, LN-229, T98G, and LN-18 cells were stably transduced with lentiviral vectors expressing sgNT-1/2 or sgCIDE-1/2/3/6/8/10 (Table 2), and seeded at 100, 1,000, and 10,000 cells per 6-well plate. Control cells were treated with DMSO or TMZ (50 μM).

[6] = tested on: HEK293T and HAP1 cells expressing ProCas9Flavi; experiment: competitive proliferation assay, cells expressing ProCas9Flavi; assay type: cell-based, human; conditions: for cell depletion with protease: ProCas9Flavi cells, WNV protease vs dTEV; for cell depletion in the absence of a stimulus: genomically integrated ProCas9Flavi
Source text: as §1
Cas-induced death by editing or ‘CIDE, as an output constrains the performance of ProCas9. The system remains off to minimize genomic damage yet is vigilant to respond to a stimulus. To develop this protease-induced altruistic defense platform, stable expression of the best CIDE guide RNAs (sgCIDE-2, sgCIDE-4) was assessed in conjunction with a genomically integrated ProCas9Flavi cassette to determine cell viability in the absence of a stimulus (FIG. 5B). […] Induction of this stably integrated altruistic defense system was then tested by Flavivirus proteases.

| Substance | depletion of the mCherry-positive population [1] | comet tails (genomic fragmentation) [2] | lethality (cell viability) [3] | cell cycle profile [4] | effect on colony count [5] | cell depletion with protease [6] | cell depletion in the absence of a stimulus [6] |
| --- | --- | --- | --- | --- | --- | --- | --- |
| sgCIDE-1: guide RNA TGTAATCCCAGCACTTTGGG (SEQ ID NO:1), targets repetitive genomic sites (chemistry not given here) | rapid elimination of the mCherry-positive population | very long tails | viral titer-dependent lethality in all four tested glioblastoma cell lines | rapid increase of the Sub-G1 population starting at day one post-transduction | over three log-scales reduction in colony count | – | – |
| sgCIDE-2: guide RNA TCCCAAAGTGCTGGGATTAC (SEQ ID NO:2) (chemistry not given here) | rapid elimination of the mCherry-positive population | very long tails | viral titer-dependent lethality in all four tested glioblastoma cell lines | rapid increase of the Sub-G1 population starting at day one post-transduction | over three log-scales reduction in colony count | specific cell depletion | only minimal amounts of cell depletion |
| sgCIDE-3: guide RNA GCCTGTAATCCCAGCACTTT (SEQ ID NO:3) (chemistry not fully specified) | – | very long tails | viral titer-dependent lethality in all four tested glioblastoma cell lines | rapid increase of the Sub-G1 population starting at day one post-transduction | over three log-scales reduction in colony count | – | – |
| sgCIDE-4: guide RNA CGCCTGTAATCCCAGCACTT (SEQ ID NO:4) (chemistry not given here) | rapid elimination of the mCherry-positive population | – | – | – | – | specific cell depletion | only minimal amounts of cell depletion |
| sgCIDE-5: guide RNA CCTCGGCCTCCCAAAGTGCT (SEQ ID NO:5) (chemistry not given here) | rapid elimination of the mCherry-positive population | – | – | – | – | – | – |
| sgCIDE-6: guide RNA CCCAGCACTTTGGGAGGCCG (SEQ ID NO:6) (chemistry not fully specified) | – | – | viral titer-dependent lethality in all four tested glioblastoma cell lines | rapid increase of the Sub-G1 population starting at day one post-transduction | over three log-scales reduction in colony count | – | – |
| sgCIDE-8: guide RNA CTGTAATCCCAGCACTTTGG (SEQ ID NO:8) (chemistry not fully specified) | – | – | viral titer-dependent lethality in all four tested glioblastoma cell lines | rapid increase of the Sub-G1 population starting at day one post-transduction | over three log-scales reduction in colony count | – | – |
| sgCIDE-10: guide RNA TTCTCCTGCCTCAGCCTCCC (SEQ ID NO:10) (chemistry not fully specified) | – | – | viral titer-dependent lethality in all four tested glioblastoma cell lines | rapid increase of the Sub-G1 population starting at day one post-transduction | over three log-scales reduction in colony count | – | – |
| sgNT-1: non-targeting guide RNA GGCCAAACGTGCCCTGACGG (SEQ ID NO:29) (chemistry not fully specified) [reference compound] | – | – | no effect | comparable normal cell cycle profiles | little effect on colony formation | – | – |
| sgNT-2: non-targeting guide RNA GCGATGGGGGGGTGGGTAGC (SEQ ID NO:30) (chemistry not fully specified) [reference compound] | – | – | no effect | comparable normal cell cycle profiles | little effect on colony formation | – | – |
| sgOR2B6-1: guide RNA to olfactory receptor gene, CATTATTCTAGTGTCACGCC (SEQ ID NO:32) (chemistry not given here) [reference compound] | no depletion | – | – | comparable normal cell cycle profiles | – | – | – |
| sgOR2B6-2: guide RNA to olfactory receptor gene, GGGTATGAAGTTTGGTGTCC (SEQ ID NO:33) (chemistry not given here) [reference compound] | no depletion | – | – | comparable normal cell cycle profiles | – | – | – |
| sgRPA1-2: guide RNA to essential gene RPA1, TACCTGGAGCAACTCCCGAG (SEQ ID NO:36) [reference compound] | – | – | – | accumulation in S-phase starting at day three, accompanied by increase of the Sub-G1 population | – | – | – |
| sgRPA1-3: guide RNA to essential gene RPA1, ACTTTCGTCAACCAGTTCTA (SEQ ID NO:37) [reference compound] | – | – | – | accumulation in S-phase starting at day three, accompanied by increase of the Sub-G1 population | – | – | – |
